Laboratory results reported in patent US20180296523A1, “USE OF POLYMETHOXYLATED FLAVONES TO AMELIORATE CIRCADIAN RHYTHM DISORDERS” (THE BOARD OF REGENTS OF THE UNIVERSITY OF TEXAS SY, priority 2017, published 2018).

Assays:
[1] = target: T1, RORα-LBD (Homo sapiens, UniProt P35398); test: Radioligand receptor binding assay with 25-[3H]-OHC, RORα-LBD; details: for competitive binding to RORα-LBD: in the presence of 4.5 nM 25-[3H]-OHC
T1 sequence (P35398 272-510 limits assumed): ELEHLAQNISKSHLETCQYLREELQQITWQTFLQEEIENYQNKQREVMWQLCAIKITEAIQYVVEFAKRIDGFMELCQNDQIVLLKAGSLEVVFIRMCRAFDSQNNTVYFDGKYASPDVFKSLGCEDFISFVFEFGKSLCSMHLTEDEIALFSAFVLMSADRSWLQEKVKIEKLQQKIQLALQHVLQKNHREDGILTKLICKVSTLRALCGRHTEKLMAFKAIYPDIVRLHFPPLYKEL
Experimental: (§1) Ligand binding was determined by filter binding assays to calculate the Kd value. […] Ki was determined using the Cheng-Prusoff equation.

[2] = target: T2, GAL4 DBD-RORα LBD (Mus musculus, UniProt P51448); test: Mammalian one-hybrid reporter assay in HEK293T cells, GAL4-RORα; assay type: cell-based; details: ligand interaction reduces transcriptional activity
T2 construct: mouse RORα-LBD (aa 261-523); expressed in transfected cells; host or cells: HEK293T
T2 sequence (P51448 261-523): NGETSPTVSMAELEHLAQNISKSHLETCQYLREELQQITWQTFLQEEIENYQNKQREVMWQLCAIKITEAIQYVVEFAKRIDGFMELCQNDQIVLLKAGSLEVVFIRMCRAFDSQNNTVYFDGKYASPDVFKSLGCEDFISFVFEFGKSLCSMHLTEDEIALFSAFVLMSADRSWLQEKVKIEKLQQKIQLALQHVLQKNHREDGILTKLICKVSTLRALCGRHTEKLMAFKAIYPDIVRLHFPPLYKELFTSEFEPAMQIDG
Text: (§2) Plasmids containing the retinoic acid-related orphan receptor response element (RORE) from mouse Bmal1 promoter, pcDNA3.1B-G4DBD-RORαLBD and pcDNA3.1BG4DBD-RORγLBD were constructed in our lab. Specifically, the 1960 bp sequences (−1830/+130) of the mouse Bmal1 promoter harboring either WT ([…] (SEQ ID NO:1) and […] (SEQ ID NO:2)) or mutant ([…] (SEQ ID NO:3)) RORE were PCR amplified from mouse genomic DNA and cloned into pGL3-promoter luciferase vector. For expression of RORα or RORγ-GAL4 protein, mouse RORα-LBD (aa 261-523) or RORγ-LBD (aa 250-516) were PCR amplified from mouse genomic DNA and cloned into a GAL4-DBD-containing vector, pcDNA3.1B.
(§3) For mammalian one-hybrid assays, HEK293T cells were cotransfected with pcDNA3.1B-G4DBD-RORα/γLBD, pGL4.31 and TK promoter Renilla luciferase construct (tK.pRL). To investigate the regulation of the Bmal1 reporter, Hepa1-6 cells were cotransfected with Bmal1-WT or mutant RORE reporter plasmids, RORα, RORγ or Rev-erbα expression construct along with tK.pRL. Mouse and human siRNA targeting RORα and RORγ were purchased from Santa Cruz. Transfection was performed by Lipfectamine 2000 reagent (Invitrogen) Twenty-four hours after transfection, the cells were treated with vehicle or NOB. Lysates were collected 24 h after treatment, and firefly and Renilla luciferase activities were measured by using a Dual-Luciferase Reporter System (Promega).
(§4) For radio-ligand receptor binding assays, previously described protocols with minor modifications (Kumar et al., 2010; Wang et al., 2010b) were adopted.

[3] = target: T3, GAL4 DBD-RORγ LBD (Mus musculus, UniProt P51450); test: Mammalian one-hybrid reporter assay in HEK293T cells, GAL4-RORγ; assay type: cell-based; details: ligand interaction reduces transcriptional activity
T3 construct: RORγ-LBD (aa 250-516); expressed in transfected cells; host or cells: HEK293T
T3 sequence (P51450 250-516): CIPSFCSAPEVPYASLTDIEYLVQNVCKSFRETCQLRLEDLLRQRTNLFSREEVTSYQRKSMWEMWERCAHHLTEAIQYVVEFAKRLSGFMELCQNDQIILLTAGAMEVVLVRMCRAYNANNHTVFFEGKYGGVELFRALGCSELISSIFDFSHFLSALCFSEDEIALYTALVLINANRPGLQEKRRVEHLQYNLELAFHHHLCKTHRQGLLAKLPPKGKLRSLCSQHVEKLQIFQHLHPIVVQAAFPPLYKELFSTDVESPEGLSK
Text: as §2, §3, §4

[4] = system: Clock^Δ19/+ PER2::Luc reporter cells; test: High-throughput chemical screen, PER2::Luc reporter rhythm; assay type: cell-based, mouse; details: for PER2::Luc reporter rhythm / circadian amplitude: Clock^Δ19/+ cells, forskolin pre-stimulated
Experimental: Specifically, the chemical screen for circadian clock modulators was conducted at the Chemical Genomics Core facility at the University of Texas Health Science Center at Houston (UTHSC-H). The in-house chemical library screened consisted of compounds from the National Institutes of Health (NIH) Clinical Collection, National Cancer Institute collection, and Microsource Spectrum Collection. Screening was conducted largely on the basis of the protocol previously described (Chen et al., 2012). […] Upon confluency, cells were incubated with 5 μM forskolin for 1-2 hr, followed by the addition of chemical compounds to the plates with robotic arms (Beckman), and then subjected to continuous monitoring over several days in a temperature-controlled EnVision microplate reader (Perkin Elmer). Data analysis was carried out by using the MultiCycle software (Actimetrics) for measurement of period, phase, and amplitude. The chemical screen for circadian clock modulators was conducted at the Chemical Genomics Core facility at the UTHSC-H. The in-house chemical library screened consists of compounds from NIH Clinical Collection, NCI collection and Microsource Spectrum Collection. The screening was conducted largely based on the protocol previously described (Chen et al., 2012). […] Cells were then incubated with 5 μM forskolin for 1-2 h followed by the addition of chemical compounds to the plates with robotic arms (Beckman), and then subjected to continuous monitoring over several days in a temperature-controlled EnVision microplate reader (Perkin Elmer). Data analysis was carried out by using the MultiCycle software (Actimetrics) for measurement of period, phase, and amplitude. […] Tissue explant experiments were conducted as described previously (Chen et al., 2012).

[5] = system: PER2::LucSV reporter fibroblast cells; test: Dose response validation of reporter rhythm in PER2::LucSV cells; assay type: cell-based, mouse; details: PER2::LucSV reporter cells
Experimental: The chemical screen for circadian clock modulators was conducted at the Chemical Genomics Core facility at the UTHSC-H. The in-house chemical library screened consists of compounds from NIH Clinical Collection, NCI collection and Microsource Spectrum Collection. The screening was conducted largely based on the protocol previously described (Chen et al., 2012). […] Cells were then incubated with 5 μM forskolin for 1-2 h followed by the addition of chemical compounds to the plates with robotic arms (Beckman), and then subjected to continuous monitoring over several days in a temperature-controlled EnVision microplate reader (Perkin Elmer). Data analysis was carried out by using the MultiCycle software (Actimetrics) for measurement of period, phase, and amplitude. […] Tissue explant experiments were conducted as described previously (Chen et al., 2012).

[6] = target: T4, RORγ-LBD (Homo sapiens, UniProt P51449); test: Radioligand receptor binding assay with 25-[3H]-OHC, RORγ-LBD; details: in the presence of 4.5 nM 25-[3H]-OHC
T4 sequence (P51449 269-508 limits assumed): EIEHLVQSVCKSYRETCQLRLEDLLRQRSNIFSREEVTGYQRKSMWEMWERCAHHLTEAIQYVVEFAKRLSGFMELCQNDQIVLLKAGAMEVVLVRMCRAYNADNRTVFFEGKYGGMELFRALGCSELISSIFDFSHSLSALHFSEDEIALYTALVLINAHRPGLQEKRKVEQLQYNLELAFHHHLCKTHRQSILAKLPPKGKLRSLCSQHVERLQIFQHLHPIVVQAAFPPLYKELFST
Experimental: as §1

SMILES: C[C@H](CCCC(C)(C)O)[C@H]1CC[C@H]2[C@@H]3CC=C4C[C@@H](O)CC[C@]4(C)[C@H]3CC[C@]12C [25-[3H]—OHC, 25-[3H]-hydroxycholesterol]
- total number of binding sites (Bmax) ([1]; Scatchard plot, RORα): 100 fmol/mg of protein

SMILES: CC(=O)Nc1nc(C)c(S(=O)(=O)Nc2ccc(C(O)(C(F)(F)F)C(F)(F)F)cc2)s1 [SR1001]
- activity on GAL4-RORα chimeric receptor [2]: robust activities
- activity on GAL4-RORγ chimeric receptor [3]: robust activities

SMILES: O=C1C[C@@H](c2ccc(O)cc2)Oc2cc(O)cc(O)c21 [naringenin]
- PER2::Luc reporter rhythm / circadian amplitude [4]: failed to enhance cellular circadian rhythms
- reporter luminescence ([4]; PER2::LUC Clock^Δ19/+ reporter cells): did not enhance the reporter luminescence
- reporter luminescence [5]: did not enhance the reporter luminescence
- competitive binding to RORα-LBD [1]: no direct binding
- competitive binding to RORα-LBD ([1]; listed as Naringenin): markedly diminished binding
- competitive binding to RORγ-LBD [6]: no direct binding
- competitive binding to RORγ-LBD ([6]; listed as Naringenin): markedly diminished binding

SMILES: COc1ccc(-c2cc(=O)c3c(OC)c(OC)c(OC)c(OC)c3o2)cc1 [tangeretin]
- PER2::Luc reporter rhythm / circadian amplitude [4]: similarly enhanced the PER2::Luc reporter rhythm
